Data on nine molecules can be found in PubChem BioAssay (NCI).

The structures appear in SMILES notation.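 Dose response: 5 concentrations. Exposure: 48 h. Format: 96-well plates. Endpoint: linear interpolation; highest concentration if not reached. TGI marks complete inhibition of growth.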

Test systems include M14 melanoma; OVCAR-4 ovarian; HL-60(TB) leukemia; A498 renal; MDA-MB-435; HCT-15 colon; IGROV1 ovarian; SNB-19 CNS; SR leukemia; T-47D breast; HCC-2998 colon; HT29 colon; MCF7 breast; NCI-H460 lung.
Assay in all cases: NCI-60 cell line screen, 48 h

On to `COc1ccc(N=NC(=O)NC(CC(C)C)C(=O)NCC(=O)O)cc1` (stereo unspecified), for which the TGI with M14 melanoma, with OVCAR-4 ovarian, with HL-60(TB) leukemia, with A498 renal, in the assay with MDA-MB-435 and with HCT-15 colon was greater than 100 µM throughout. Further, the TGI with IGROV1 ovarian was greater than 100 µM; in the assay with SNB-19 CNS, greater than 100 µM; with SR leukemia it was greater than 100 µM; in the assay with T-47D breast, greater than 84 µM; in the assay on HCC-2998 colon it was greater than 87.5 µM; in the assay with HT29 colon, greater than 100 µM. Also, the TGI with MCF7 breast was greater than 100 µM; in the assay with NCI-H460 lung it was greater than 58.7 µM.

For the molecule `CCC1(c2ccc(N3C(=O)c4cc(OC)c(OC)cc4C3=O)cc2)CCC(=O)NC1=O` (stereo unspecified), the TGI with M14 melanoma, in the assay on OVCAR-4 ovarian, with HL-60(TB) leukemia, in the assay on A498 renal, with MDA-MB-435 and in the assay with HCT-15 colon was greater than 10 µM throughout. Besides, the TGI in the assay on IGROV1 ovarian, in the assay with SNB-19 CNS, with SR leukemia, in the assay on T-47D breast, in the assay on HCC-2998 colon and with HT29 colon was greater than 10 µM throughout. Also, the TGI with MCF7 breast and in the assay on NCI-H460 lung was greater than 10 µM throughout.

`CC(C)(Cl)C(Br)CCC(Br)(CCl)C(Cl)CBr` (stereo unspecified): the TGI in the assay with M14 melanoma, in the assay on OVCAR-4 ovarian, in the assay with HL-60(TB) leukemia, with A498 renal, in the assay with MDA-MB-435 and with HCT-15 colon was greater than 10 µM each time. Moreover, the TGI in the assay with IGROV1 ovarian, in the assay on SNB-19 CNS, with SR leukemia, in the assay on T-47D breast, in the assay on HCC-2998 colon and with HT29 colon was greater than 10 µM throughout. In addition, the TGI with MCF7 breast and with NCI-H460 lung was greater than 10 µM throughout.

On to `Nc1nc(NCCCO)cc(=O)[nH]1`, for which the TGI in the assay with M14 melanoma, in the assay with OVCAR-4 ovarian, with HL-60(TB) leukemia, in the assay on A498 renal, in the assay on MDA-MB-435 and in the assay with HCT-15 colon was greater than 100 µM throughout. Also, the TGI with IGROV1 ovarian, in the assay with SNB-19 CNS, in the assay with SR leukemia, in the assay on T-47D breast, in the assay on HCC-2998 colon and with HT29 colon was greater than 100 µM each time. Moreover, the TGI in the assay on MCF7 breast and in the assay on NCI-H460 lung was greater than 100 µM throughout.

Regarding `Cc1cc2nc3ccccc3n2c2nc(N)ccc12`, the TGI with M14 melanoma was greater than 100 µM; in the assay with OVCAR-4 ovarian, greater than 100 µM; with HL-60(TB) leukemia it was greater than 100 µM; in the assay on A498 renal it was greater than 100 µM; in the assay on MDA-MB-435, greater than 100 µM; in the assay on HCT-15 colon, 93.1 µM. For the same molecule, the TGI in the assay on IGROV1 ovarian, in the assay on SNB-19 CNS, with SR leukemia, in the assay on T-47D breast, in the assay on HCC-2998 colon and with HT29 colon was greater than 100 µM each time. Besides, the TGI with MCF7 breast was greater than 100 µM; in the assay on NCI-H460 lung, 27.5 µM.

For the molecule `CC(=O)OCC1OC(n2c3c(c(-c4ccc(Cl)cc4)c(C#N)c2=S)CCCC3)C(OC(C)=O)C(OC(C)=O)C1OC(C)=O` (stereo unspecified), the TGI in the assay with M14 melanoma is greater than 100 µM; with OVCAR-4 ovarian, greater than 100 µM; in the assay with HL-60(TB) leukemia, greater than 100 µM; in the assay on A498 renal, 79.3 µM; in the assay on MDA-MB-435, greater than 100 µM; in the assay on HCT-15 colon, greater than 100 µM. Moreover, the TGI in the assay on IGROV1 ovarian, in the assay with SNB-19 CNS, in the assay on SR leukemia, in the assay on T-47D breast, with HCC-2998 colon and in the assay with HT29 colon was greater than 100 µM in each case. In addition, the TGI in the assay with MCF7 breast and with NCI-H460 lung was greater than 100 µM in each case.

Take `O=C1O[C@H]2[C@H](OC(=O)c3cc(O)c(O)c(O)c3)[C@@H](OC(=O)c3cc(O)c(O)c4c3[C@@H]3C1=CC(=O)C(O)(O)C3(O)O4)[C@H](OC(=O)c1cc(O)c(O)c(O)c1)O[C@@H]2COC(=O)c1cc(O)c(O)c(O)c1` (stereo partly specified): the TGI in the assay with M14 melanoma, with OVCAR-4 ovarian, in the assay on HL-60(TB) leukemia, in the assay with A498 renal, in the assay with MDA-MB-435 and in the assay with HCT-15 colon was greater than 100 µM in each case. In addition, the TGI in the assay on IGROV1 ovarian, in the assay with SNB-19 CNS, with SR leukemia, in the assay with T-47D breast, with HCC-2998 colon and in the assay on HT29 colon was greater than 100 µM in each case. The TGI with MCF7 breast and in the assay on NCI-H460 lung was greater than 100 µM each time.

Take `COC(=O)c1cc(NC(=O)Cc2c[nH]c3ccccc23)cn1C`: the TGI in the assay on M14 melanoma, in the assay with OVCAR-4 ovarian, with HL-60(TB) leukemia, with A498 renal, with MDA-MB-435 and in the assay on HCT-15 colon was greater than 100 µM throughout. For the same molecule, the TGI in the assay with IGROV1 ovarian, in the assay with SNB-19 CNS, in the assay with SR leukemia, in the assay on T-47D breast, in the assay on HCC-2998 colon and with HT29 colon was greater than 100 µM each time. Further, the TGI with MCF7 breast and in the assay on NCI-H460 lung was greater than 100 µM throughout.

With `COC(C)(C)/C=C/c1[nH]c2ccccc2c1CC(=O)NCCc1cn(C(c2ccccc2)(c2ccccc2)c2ccccc2)cn1`, the TGI was 17.3 µM in the assay with M14 melanoma; greater than 100 µM in the assay on OVCAR-4 ovarian; 8.88 µM with HL-60(TB) leukemia; 12.9 µM in the assay with A498 renal; 22.3 µM in the assay with MDA-MB-435; greater than 100 µM with HCT-15 colon. For the same molecule, the TGI is greater than 100 µM in the assay with IGROV1 ovarian; greater than 100 µM with SNB-19 CNS; 5.8 µM in the assay with SR leukemia; greater than 21.9 µM with T-47D breast; 2.95 µM in the assay on HCC-2998 colon; greater than 21.5 µM with HT29 colon. Besides, the TGI in the assay with MCF7 breast is 15.5 µM; with NCI-H460 lung, greater than 23.5 µM.
